Reference: patent publication US20140315876A1, “BETA-LACTAMASE INHIBITORS” (priority 2013, published 2014)
Structures can show the parent of a compound that is named as a salt.

Experiments:
[1] = system: bacterial strains that express KPC β-lactamases; experiment: Synergy MIC / standard BLI potentiation MIC assay, strains expressing KPC β-lactamases; type: cell-based; conditions: more active for at least one KPC strain and/or better spectrum of activity than Avibactam; in the presence of a β-lactam
Outline: (§1)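 Broth microdilution in CAMHB per CLSI, ~10^5 CFU/mL, 18-20 h at 37° C; MIC is lowest concentration with no visible turbidity. Potentiation: β-lactam 128-0.13 μg/mL with BLI fixed at 4 μg/mL. Synergy: BLI serially diluted with β-lactam fixed. Engineered E. coli kept on 25 μg/mL tetracycline.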

[2] = system: bacterial strains that express the class D cephalosporinase OXA-15; experiment: Synergy MIC / standard BLI potentiation MIC assay, strains expressing OXA-15; type: cell-based, E. coli; conditions: in the presence of a β-lactam; comparator Avibactam (comparator compound CCC)
Outline: as §1

Row | Compound | activity and/or spectrum of activity against bacterial strains that express KPC β-lactamases, compared with Avibactam [1] | activity against bacterial strains that express the class D cephalosporinase OXA-15, compared with Avibactam [2]
1 | N[C@H]1CN[C@H](c2nnc([C@@H]3CC[C@@H]4CN3C(=O)N4OS(=O)(=O)O)o2)C1 [Compound 762, (2S,5R)-2-(5-((2S,4R)-4-aminopyrrolidin-2-yl)-1,3,4-oxadiazol-2-yl)-7-oxo-1,6-diazabicyclo[3.2.1]octan-6-yl hydrogen sulfate] | more active than Avibactam | more active than Avibactam
2 | N[C@@H]1CN[C@@H](c2nnc([C@@H]3CC[C@@H]4CN3C(=O)N4OS(=O)(=O)O)o2)C1 [Compound 763, (2S,5R)-2-(5-((2R,4S)-4-aminopyrrolidin-2-yl)-1,3,4-oxadiazol-2-yl)-7-oxo-1,6-diazabicyclo[3.2.1]octan-6-yl hydrogen sulfate] | more active than Avibactam | more active than Avibactam
3 | O=C1N2C[C@@H](CC[C@H]2c2nnc(CC3CCNC3)o2)N1OS(=O)(=O)O (stereo partly drawn) [Compound 764, (2S,5R)-7-oxo-2-(5-(pyrrolidin-3-ylmethyl)-1,3,4-oxadiazol-2-yl)-1,6-diazabicyclo[3.2.1]octan-6-yl hydrogen sulfate] | more active than Avibactam | more active than Avibactam
4 | O=C1N2C[C@@H](CC[C@H]2c2nnc(CN[C@H]3CCNC3)o2)N1OS(=O)(=O)O [Compound 765, (2S,5R)-7-oxo-2-(5-(((S)-pyrrolidin-3-ylamino)methyl)-1,3,4-oxadiazol-2-yl)-1,6-diazabicyclo[3.2.1]octan-6-yl hydrogen sulfate] | more active than Avibactam | more active than Avibactam
5 | O=C1N2C[C@@H](CC[C@H]2c2nnc(CN[C@@H]3CCNC3)o2)N1OS(=O)(=O)O [Compound 766, (2S,5R)-7-oxo-2-(5-(((R)-pyrrolidin-3-ylamino)methyl)-1,3,4-oxadiazol-2-yl)-1,6-diazabicyclo[3.2.1]octan-6-yl hydrogen sulfate] | more active than Avibactam | more active than Avibactam
6 | N=C1NCC(c2nnc([C@@H]3CC[C@@H]4CN3C(=O)N4OS(=O)(=O)O)o2)N1 (stereo partly drawn) [Compound 767, (2S,5R)-2-(5-(2-iminoimidazolidin-4-yl)-1,3,4-oxadiazol-2-yl)-7-oxo-1,6-diazabicyclo[3.2.1]octan-6-yl hydrogen sulfate] | more active than Avibactam | more active than Avibactam
7 | N[C@H]1CC[C@@H](c2nnc([C@@H]3CC[C@@H]4CN3C(=O)N4OS(=O)(=O)O)o2)C1 [Compound 768, (2S,5R)-2-(5-((1R,3S)-3-aminocyclopentyl)-1,3,4-oxadiazol-2-yl)-7-oxo-1,6-diazabicyclo[3.2.1]octan-6-yl hydrogen sulfate] | more active than Avibactam | more active than Avibactam
8 | O=C1N2C[C@@H](CC[C@H]2c2nnc(CCNC3CCNCC3)o2)N1OS(=O)(=O)O [Compound 770, (2S,5R)-7-oxo-2-(5-(2-(piperidin-4-ylamino)ethyl)-1,3,4-oxadiazol-2-yl)-1,6-diazabicyclo[3.2.1]octan-6-yl hydrogen sulfate] | more active than Avibactam | more active than Avibactam
9 | O=C1N2C[C@@H](CC[C@H]2c2nnc(CCCNC3CCNCC3)o2)N1OS(=O)(=O)O [Compound 771, (2S,5R)-7-oxo-2-(5-(3-(piperidin-4-ylamino)propyl)-1,3,4-oxadiazol-2-yl)-1,6-diazabicyclo[3.2.1]octan-6-yl hydrogen sulfate] | more active than Avibactam | more active than Avibactam
10 | O=C1N2C[C@@H](CC[C@H]2c2nnc(CCCCNC3CCNCC3)o2)N1OS(=O)(=O)O [Compound 772, (2S,5R)-7-oxo-2-(5-(4-(piperidin-4-ylamino)butyl)-1,3,4-oxadiazol-2-yl)-1,6-diazabicyclo[3.2.1]octan-6-yl hydrogen sulfate] | more active than Avibactam | more active than Avibactam
11 | NC1CCN(Cc2nnc([C@@H]3CC[C@@H]4CN3C(=O)N4OS(=O)(=O)O)o2)CC1 [Compound 774, (2S,5R)-2-(5-((4-aminopiperidin-1-yl)methyl)-1,3,4-oxadiazol-2-yl)-7-oxo-1,6-diazabicyclo[3.2.1]octan-6-yl hydrogen sulfate] | more active than Avibactam | more active than Avibactam
12 | O=C1N2C[C@@H](CC[C@H]2c2nnc(CCN3CCNCC3)o2)N1OS(=O)(=O)O [Compound 776, (2S,5R)-7-oxo-2-(5-(2-(piperazin-1-yl)ethyl)-1,3,4-oxadiazol-2-yl)-1,6-diazabicyclo[3.2.1]octan-6-yl hydrogen sulfate] | more active than Avibactam | more active than Avibactam
13 | O=C1N2C[C@@H](CC[C@H]2c2nnc(CN3CCNCC3)o2)N1OS(=O)(=O)O [Compound 777, (2S,5R)-7-oxo-2-(5-(piperazin-1-ylmethyl)-1,3,4-oxadiazol-2-yl)-1,6-diazabicyclo[3.2.1]octan-6-yl hydrogen sulfate] | more active than Avibactam | more active than Avibactam
14 | O=C1N2C[C@@H](CC[C@H]2c2nnc([C@H]3CNCCN3)o2)N1OS(=O)(=O)O [Compound 779, (2S,5R)-7-oxo-2-(5-((R)-piperazin-2-yl)-1,3,4-oxadiazol-2-yl)-1,6-diazabicyclo[3.2.1]octan-6-yl hydrogen sulfate] | more active than Avibactam | more active than Avibactam
15 | C[n+]1ccc(-c2nnc([C@@H]3CC[C@@H]4CN3C(=O)N4OS(=O)(=O)[O-])o2)cc1 [Compound 782, (2S,5R)-2-(5-(1-methylpyridin-1-ium-4-yl)-1,3,4-oxadiazol-2-yl)-7-oxo-1,6-diazabicyclo[3.2.1]octan-6-yl sulfate] | more active than Avibactam | more active than Avibactam
